# Test results from patent publication US10413583B2, “Synthetic substrates for enzymes that catalyze reactions of modified cysteines and related methods” (The University of Chicago, priority 2016, dated 2019).
# System: HEK293T cells
# Assay: Live cell fluorescence imaging and flow cytometry of DPP-2 and DPP-3 in HEK293T cells
# Type: cell-based, human
# Conditions: for effect of inhibitor on DPP-3 signal: 1 μM PalmB, 1 μM ML348, 1 or 5 μM ML349 (FIGS. 10, 11)
# Description: HEK293T (650,000 cells per dish) cells were plated with 1.5 mL of Dulbecco's Modified Eagle Medium (DMEM) (High Glucose, 10% fetal bovine serum (FBS)) in a 35 mm glass bottom dish (D35-10-1.5-N; Cellvis, Mountain View, Calif., United States of America) 24 hrs prior to imaging. 30 min before the addition of the DPP probe, the cell culture media was removed and cells were washed with 1 mL of Delbecco's phosphate-buffered saline (DPBS). The media was then replaced with 1 mL of DMEM containing 1 μM Hoechst 33342 and either 0.1% DMSO carrier as a control, 1 or 2 μM Palm B, 0.1, 1.0, or 5 μM ML348, and incubated for 30 min at 37° C. and 5% CO2. The media was removed, the cells were washed with 1 mL of Live Cell Imaging Solution (Thermo Fisher Scientific, Waltham, Mass., United States of America), and 1 mL of 1 μM DPP-2 or DPP-3 in Live Cell Imaging Solution was added to each plate. For ML348 0.1, 1.0, or 5 μM was added along with DPP-2 or DPP-3. After incubation for 15 min at 37° C. and 5% CO2, images were obtained on an inverted epi-fluorescence microscope (Olympus IX83; Olympus Corporation, Tokyo, Japan) attached with EMCCD camera (Photometrics EVOLVE™ Delta; Photometrics, Tucson, Ariz., United States of America) with 40× oil objective (N/A 1.3) for DPP-2 (excitation filter 500/20, dichroic chroma 89007, emission filter 535/30, exposure time 200 ms, EM gain 25), Hoechst 33342: (excitation filter 402/15, emission filter 455/50, dichroic chroma 89013, exposure time 30 ms, EM gain 25), and brightfield (exposure time 5 ms, EM gain 5), and for DPP-3 (exposure time 500 ms, EM gain 150), Hoechst 33342: (exposure time 30 ms, EM gain 25), and brightfield (exposure time 20 ms, EM gain 5). Analyses were performed in ImageJ. For data analysis, the average fluorescence intensity per image in each experimental condition was obtained by selecting regions of interest (ROIs) in the brightfield image. For display, the data were normalized to the average fluorescence intensity of the control conditions. Each experiment was repeated at least three separate times with identical results.
# Cells were plated on a 10 cm dish with 10 mL of DMEM/High Glucose (10% FBS, 1% P/S, L-Glutamine, Sodium pyruvate) 36-48 hours prior to the day of experiment and maintained at 37° C., 5% CO2 so as to obtain 80-90% confluency. Cells were washed with DPBS and trypsinized with 1 mL 0.05% Trypsin. 5 mL of DMEM/High Glucose (10% FBS, L-Glutamine, Sodium pyruvate) was added and cells were spun down at 1200 rpm for 3 min. Media was discarded and cells were resuspended in 5 mL of Live Cell Imaging Solution and again spun down at 1200 rpm for 3 min. The cells pellets obtained were resuspended in 3-5 mL of Live Cell Imaging Solution and divided into 500 μL aliquots. The aliquots were treated with either 0.2% DMSO carrier or 1 μM of PalmB/ML348 or 1 μM/5 μM of ML349 inhibitor. After 30 min of incubation at room temperature, 1 μL of 2.5 mM DPP-3 in DMSO was added to each aliquot for a final concentration of 5 μM, and the solutions were mixed. After 5 min incubation at room temperature, fluorescence signal in FITC channel was measured for 10000 cells (5000 for HeLa experiments) on a LSR-Fortessa 4-15 HTS (BD digital instrument, 488 nm laser with 530/30 nm filter for FITC; BD, Franklin Lakes, N.J., United States of America). For analyzing DPP2 in HEK293T cells, the aliquots were treated with either 0.2% DMSO carrier or 2 μM of PalmB, 5 or 20 μM of ML348/ML349 and then analyzed by the protocol as mentioned above. Data was analyzed by FlowJo software version 10.0.8. For comparison of A431 starved versus non-starved, parallel 10 cm dishes of A431 cells were plated in 10 mL of DMEM (high glucose, 10% FBS, 1% P/S), and grown for 36 h. The growth media was removed, and replaced by 10 mL of either DMEM (High glucose) with 10% FBS to maintain “growth” conditions, or DMEM (High glucose) without FBS respectively for “starvation” conditions, and incubated for 14 h. […]
SMILES,effect of inhibitor on DPP-3 signal,effect of inhibitor on DPP-2 fluorescent signal (5 μM inhibitor),effect of inhibitor on DPP-2 fluorescent signal (2 μM inhibitor)
COc1ccc(N2CCN(C(=O)c3cc4c(s3)-c3ccccc3S(=O)(=O)C4)CC2)cc1 [ML349],not substantially perturbed,perturbed,
O=C(CN1CCN(C(=O)c2ccco2)CC1)Nc1cc(C(F)(F)F)ccc1Cl [ML348],lower amounts of PalmB or ML348 were needed to perturb the signal,perturbed,
"CCCCCCCCCC[C@@H]1C(=O)O[C@H]1CCc1ccc(OC)c(OC)c1 [PalmB, palmostatin B]",lower amounts of PalmB or ML348 were needed to perturb the signal,,perturbed
